The record followed here is EP1242382B1, “TRICYCLIC PROTEIN KINASE INHIBITORS” (Wyeth, priority 1999, dated 2001).

Each structure is given as a SMILES string.

Experiment [1] addresses T1, EGF-R Kinase (recombinant enzyme) (Homo sapiens, UniProt P00533).
T1 construct: EGFR cDNA encoding amino acids 645 - 1186 preceded by Met-Ala-(His)6; made in house; host or cells: Sf9 insect cells, recombinant baculovirus vHcEGFR52
In words: Inhibition of Epidermal Growth Factor Receptor Kinase (EGF-R) using recombinant enzyme. The experiment is classed as biochemical. As to conditions: RR-SRC peptide substrate, (a) = average of two tests. On the procedure:
Representative test compounds are evaluated in a standard pharmacological test procedure to measure their ability to inhibit the phosphorylation of the tyrosine residue of a peptide substrate catalyzed by the enzyme epidermal growth factor receptor kinase. […] The enzyme used in this assay is the His-tagged cytoplasmic domain of EGFR. […] Sf9 cells in 100 mm plates are infected at a multiplicity of infection of 10 pfu/cell and cells are harvested 48 h post infection. A cytoplasmic extract is prepared using 1% Triton X-100 and applied to Ni-NTA column. After washing the column with 20 mM imidazole, HcEGFR is eluted with 250 mM imidazole (in 50 mM Na2HPO4, pH 8.0, 300 mM NaCl). Fractions collected are dialyzed against 10 mM HEPES, pH 7.0, 50 mM NaCl, 10% glycerol, 1ug/mL antipain and leupeptin and 0.1 mM Pefabloc SC. The protein is frozen in dry ice/methanol and stored -70°C.
Test compounds are made into 10 mg/mL stock solutions in 100% dimethylsulfoxide (DMSO). Prior to experiment, stock solutions are diluted to 500 uM with 100% DMSO and then serially diluted to the desired concentration with HEPES buffer (30 mM HEPES pH 7.4).
For the enzyme reaction, 10 uL of each inhibitor (at various concentrations) are added to each well of a 96-well plate. To this is added 3 uL of enzyme (1:10 dilution in 10mM HEPES, pH 7.4 for final conc. of 1:120). This is allowed to sit for 10 min on ice and is followed by the addition of 5 ul peptide (80 uM final conc.), 10ul of 4X Buffer containing 50 mM HEPES (pH 7.4), 200 mM Na3VO4, 40mM MnCl2, 80 uM ATP, 0.25 uL ^33P-ATP (>2500 Ci/mmol; Amersham) and 12 uL H2O. The reaction is allowed to run for 90 min at room temperature and is followed by spotting the entire volume onto precut P81 filter papers. The filter discs are washed 2X with 0.5% phosphoric acid and radioactivity is measured using a liquid scintillation counter.
The % inhibition of the test compound is determined for at least three different concentrations and the IC50 value is evaluated from the dose response curve. […] CPM(control) is in units of counts per minute and is a number expressing the amount of radiolabled ATP (γ-^33P) incorporated into the RR-SRC peptide substrate by the enzyme after 90 minutes at room temperature in the absence of test compound as measured by liquid scintillation counting. The CPM values are corrected for the background counts produced by ATP in the absence of the enzymatic reaction.

Experiment [2] deals with T2, Raf-1 (c-Raf) (Homo sapiens, UniProt P04049).
T2 construct: Sf9 insect cell lysate containing full length 6his-tagged recombinant human c-Raf; host or cells: c-Raf: Sf9 insect cell lysate; MEK1 and MAPK: E. coli
In words: Raf1 kinase cascade assay procedure. The format is biochemical.

T2 sequence (P04049 whole entry): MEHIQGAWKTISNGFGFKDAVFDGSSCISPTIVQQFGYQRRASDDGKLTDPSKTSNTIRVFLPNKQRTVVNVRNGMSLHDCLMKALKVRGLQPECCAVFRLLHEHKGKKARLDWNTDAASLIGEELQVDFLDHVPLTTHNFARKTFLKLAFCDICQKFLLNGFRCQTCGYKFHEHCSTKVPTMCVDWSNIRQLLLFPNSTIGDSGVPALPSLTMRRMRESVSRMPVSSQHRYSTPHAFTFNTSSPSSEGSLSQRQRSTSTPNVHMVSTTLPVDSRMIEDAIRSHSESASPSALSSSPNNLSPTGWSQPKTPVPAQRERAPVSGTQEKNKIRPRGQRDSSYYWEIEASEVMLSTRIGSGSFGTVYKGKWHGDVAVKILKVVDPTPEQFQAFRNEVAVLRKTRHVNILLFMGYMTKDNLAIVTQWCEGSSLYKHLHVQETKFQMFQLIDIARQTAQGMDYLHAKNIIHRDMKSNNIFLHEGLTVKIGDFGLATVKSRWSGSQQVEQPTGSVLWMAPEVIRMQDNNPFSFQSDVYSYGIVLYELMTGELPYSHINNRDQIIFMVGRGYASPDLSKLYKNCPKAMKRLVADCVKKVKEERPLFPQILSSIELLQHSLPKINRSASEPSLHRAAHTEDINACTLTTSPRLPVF
T1 sequence (P00533 669-1210): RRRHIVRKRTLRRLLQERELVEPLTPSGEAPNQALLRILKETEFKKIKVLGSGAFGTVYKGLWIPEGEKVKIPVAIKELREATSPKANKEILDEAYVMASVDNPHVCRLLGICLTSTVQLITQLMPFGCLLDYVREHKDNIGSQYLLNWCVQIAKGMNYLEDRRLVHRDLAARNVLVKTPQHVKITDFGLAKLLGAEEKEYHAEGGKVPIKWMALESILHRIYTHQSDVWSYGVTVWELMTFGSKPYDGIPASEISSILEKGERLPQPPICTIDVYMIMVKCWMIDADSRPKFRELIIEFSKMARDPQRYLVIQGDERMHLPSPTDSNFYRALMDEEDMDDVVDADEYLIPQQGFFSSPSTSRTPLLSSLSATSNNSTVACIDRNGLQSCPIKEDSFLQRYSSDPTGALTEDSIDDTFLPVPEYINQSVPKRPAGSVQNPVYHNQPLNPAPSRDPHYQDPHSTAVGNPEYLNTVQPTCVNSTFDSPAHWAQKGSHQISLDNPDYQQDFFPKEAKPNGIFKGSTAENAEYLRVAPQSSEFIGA

For the compound `COc1cc2cc3c(Nc4ccc(OCc5ccccc5)c(Cl)c4)c(C#N)cnc3cc2cc1OCCN1CCOCC1` [Example 218, 4-(4-Benzyloxy-3-chlorophenylamino)-7-methoxy-8-(2-morpholin-4-yl-ethoxy)benzo[g]quinoline-3-carbonitrile], the figures for the IC50 in experiment [1] and in experiment [2] were 5.3 nM and 660 nM, respectively.
